For experiment [1], the target named is T1, Interferon regulatory factor 3 (Homo sapiens, UniProt Q14653).
T1 sequence (Q14653 whole entry): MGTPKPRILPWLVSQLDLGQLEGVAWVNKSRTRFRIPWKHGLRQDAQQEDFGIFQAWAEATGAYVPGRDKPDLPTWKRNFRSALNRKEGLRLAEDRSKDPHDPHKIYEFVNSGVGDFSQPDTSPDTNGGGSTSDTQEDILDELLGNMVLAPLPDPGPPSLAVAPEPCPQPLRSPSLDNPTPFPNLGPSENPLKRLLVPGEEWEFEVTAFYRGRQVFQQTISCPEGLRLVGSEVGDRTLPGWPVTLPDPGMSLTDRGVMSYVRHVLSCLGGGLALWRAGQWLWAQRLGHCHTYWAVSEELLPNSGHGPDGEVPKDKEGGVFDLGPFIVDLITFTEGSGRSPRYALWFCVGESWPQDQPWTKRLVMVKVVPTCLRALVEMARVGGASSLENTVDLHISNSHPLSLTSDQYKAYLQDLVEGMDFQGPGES
The experiment in a line: Induction of IRF3 pathway in STING knockout human THP1 cells measured after 20 hrs by luciferase reporter gene assay.

The nature of experiment [2]: Agonist activity at STING in human THP1 cells assessed as stimulation of IRF3 pathway measured after 20 hrs by luciferase reporter gene assay. A general note: Reporter assays use an easily measured gene product as a stand-in for the process of interest.

What is called EC50 is the midpoint of the concentration-response curve. Regarding `CCn1nc(C)cc1C(=O)Nc1nc2cc(C(N)=O)cc(OC)c2n1CCCN`, the EC50 in experiment [1] and in experiment [2] was over 100 µM in each case.
Turning to `CCCn1c(NC(=O)CCc2ccccc2)nc2cc(C(N)=O)cc(OC)c21`, the EC50 in experiment [1] and in experiment [2] was over 100 µM throughout.
Regarding `CCn1nc(C)cc1C(=O)Nc1nc2cc(C(N)=O)cnc2n1CCCNC(=O)OC(C)(C)C`, the EC50 in experiment [1] and in experiment [2] was over 100 µM throughout.
As for `CCn1nc(C)cc1C(=O)Nc1nc2cc(C(N)=O)ccc2n1CCCNC(=O)OCc1ccccc1`, the EC50 in experiment [1] and in experiment [2] was over 100 µM in each case.
For the compound `COc1cc(C(N)=O)cc2nc(NC(=O)c3ccccn3)n(CCCCNC(=O)OC(C)(C)C)c12`, the EC50 in experiment [1] was over 100 µM.
`COc1cc(C(N)=O)cc2nc(NC(=O)C3CCCN3C)n(CCCNC(=O)OCc3ccccc3)c12` (centres undefined): the EC50 in experiment [1] and in experiment [2] was over 100 µM throughout.
For `CCn1nc(C)cc1C(=O)Nc1nc2cccc(OC)c2n1CCCNC(=O)OCc1ccccc1`, the EC50 in experiment [1] and in experiment [2] was over 100 µM each time.
On to `CCCn1c(NC(=O)c2ccc3ccccc3n2)nc2cc(C(N)=O)cc(OC)c21`, for which the EC50 in experiment [1] and in experiment [2] was over 100 µM throughout.
In the case of `CCn1nc(C)cc1C(=O)Nc1nc2cc(C(=O)OC)cnc2n1CCCNC(=O)OC(C)(C)C`, the EC50 in experiment [1] and in experiment [2] was over 100 µM in each case.
On to `CCn1nc(C)cc1C(=O)Nc1nc2cc(C(N)=O)cc(OC)c2n1CCCNC(=O)OC(C)(C)C`, for which, in experiment [1], the EC50 was over 100 µM.
Turning to `CCn1nc(C)cc1C(=O)Nc1nc2cc(C(N)=O)cc(OC)c2n1CCCNC(=O)OCc1ccccc1`, the EC50 was over 100 µM in experiment [1] and 0.872 µM in experiment [2].
On to `CCn1nccc1C(=O)Nc1nc2cc(C(N)=O)cc(OC)c2n1CCCNC(=O)OCc1ccccc1`, for which the EC50 in experiment [1] and in experiment [2] was over 100 µM throughout.
On to `COc1cc(C(N)=O)cc2nc(NC(=O)c3ccnn3C)n(CCCNC(=O)OCc3ccccc3)c12`, for which the EC50 in experiment [1] and in experiment [2] was over 100 µM throughout.
As to `CCCn1c(NC(=O)c2nccc3ccccc23)nc2cc(C(N)=O)cc(OC)c21`, the EC50 in experiment [1] and in experiment [2] was over 100 µM each time.
For the compound `CCCn1c(NC(=O)c2cc(C)nn2CC)nc2cc(C(=O)OC)cc(OC)c21`, the EC50 in experiment [1] and in experiment [2] was over 100 µM throughout.
`COc1cc(C(N)=O)cc2nc(NC(=O)c3cccnn3)n(CCCNC(=O)OCc3ccccc3)c12` had an EC50 in experiment [1] of over 100 µM.
Turning to `COc1cc(C(N)=O)cc2nc(NC(=O)c3ccccn3)n(CCCNC(=O)OCc3ccccc3)c12`, the EC50 in experiment [1] is over 100 µM.
As for `COc1cc(C(N)=O)cc2nc(NC(=O)c3ccc4ccccc4n3)n(CCCNC(=O)OCc3ccccc3)c12`, the EC50 in experiment [1] and in experiment [2] was over 100 µM in each case.
With `CCn1nc(C)cc1C(=O)Nc1nc2cc(C(=O)OC)cc(OC)c2n1CCCNC(=O)OCc1ccccc1`, the EC50 in experiment [1] came out at 27.6 µM; in experiment [2], 20.7 µM.
As to `CCCn1c(NC(=O)c2cc3ccccc3n2C)nc2cc(C(N)=O)cc(OC)c21`, the EC50 in experiment [1] and in experiment [2] was over 100 µM each time.
Regarding `CCCn1c(NC(=O)c2cncn2C)nc2cc(C(N)=O)cc(OC)c21`, the EC50 in experiment [1] and in experiment [2] was over 100 µM each time.
Regarding `CCCn1c(NC(=O)c2ccnn2CC)nc2cc(C(N)=O)cc(OC)c21`, the EC50 in experiment [1] and in experiment [2] was over 100 µM throughout.
On to `CCCn1c(NC(=O)c2ccccn2)nc2cc(C(N)=O)cc(OC)c21`, for which the EC50 in experiment [1] and in experiment [2] was over 100 µM each time.
For `CCCn1c(NC(=O)c2cc(C)nn2CC)nc2cccc(OC)c21`, the EC50 in experiment [1] and in experiment [2] was over 100 µM throughout.
The compound `CCCn1c(NC(=O)c2cc(C)nn2CC)nc2cc(C(N)=O)ccc21` came in with an EC50 in experiment [1] of over 100 µM.
Take `CCn1nc(C)cc1C(=O)Nc1nc2cc(C(=O)O)cnc2n1CCCNC(=O)OC(C)(C)C`: the EC50 in experiment [1] and in experiment [2] was over 100 µM in each case.
As to `NC(=O)c1cc(OCCCN2CCOCC2)c2c(c1)nc(NC(=O)c1cccnn1)n2CCCNC(=O)OCc1ccccc1`, the EC50 in experiment [1] and in experiment [2] was over 100 µM in each case.
With `NC(=O)c1cc(OCCCN2CCOCC2)c2c(c1)nc(NC(=O)c1ccccn1)n2CCCNC(=O)OCc1ccccc1`, the EC50 in experiment [1] and in experiment [2] was over 100 µM in each case.
In the case of `COCCCOc1cc(C(N)=O)cc2nc(NC(=O)c3cccnn3)n(CCCNC(=O)OCc3ccccc3)c12`, the EC50 in experiment [1] and in experiment [2] was over 100 µM throughout.
In experiment [1], `COCCCOc1cc(C(N)=O)cc2nc(NC(=O)c3ccccn3)n(CCCNC(=O)OCc3ccccc3)c12` yielded an EC50 of over 100 µM.
On the same count and under the same terms, in the case of `COc1cc(C(N)=O)cc2nc(NC(=O)c3cccnn3)n(CCCCNC(=O)OC(C)(C)C)c12` it was over 100 µM.
As for `CCn1nc(C)cc1C(=O)Nc1nc2cc(C(N)=O)cc(OC)c2n1CCCNC(=O)CCc1cc(OC)c(OC)c(OC)c1`, the EC50 in experiment [1] and in experiment [2] was over 100 µM in each case.
With `COc1cc(C(N)=O)cc2nc(NC(=O)c3cncn3C)n(CCCNC(=O)OCc3ccccc3)c12`, the EC50 in experiment [1] and in experiment [2] was over 100 µM each time.
For `COc1cc(C(N)=O)cc2nc(NC(=O)CCc3ccccc3)n(CCCNC(=O)OCc3ccccc3)c12`, the EC50 in experiment [1] and in experiment [2] was over 100 µM throughout.
Take `COc1cc(C(N)=O)cc2nc(NC(=O)c3cccn3C)n(CCCNC(=O)OCc3ccccc3)c12`: the EC50 in experiment [1] and in experiment [2] was over 100 µM each time.
Turning to `COc1cc(C(N)=O)cc2nc(NC(=O)C3CCN(C)CC3)n(CCCNC(=O)OCc3ccccc3)c12`, the EC50 in experiment [1] and in experiment [2] was over 100 µM in each case.
In the case of `CCn1nc(C)cc1C(=O)Nc1nc2cc(C(N)=O)cc(OC)c2n1CCCNC(=O)C(C)(C)C`, the figures for the EC50 in experiment [1] and in experiment [2] were over 100 µM and 27.5 µM, respectively.
Regarding `CCn1nc(C)cc1C(=O)Nc1nc2cc(C(N)=O)cc(OC)c2n1CCCNC(=O)CCc1cccnc1`, the EC50 in experiment [1] was over 100 µM; in experiment [2], 39.5 µM.
`CCn1nc(C)cc1C(=O)Nc1nc2cc(C(N)=O)cc(OCCCN3CCOCC3)c2n1CCCNC(=O)OCc1ccccc1` yielded an EC50 in experiment [1] of over 100 µM.
`CCn1nc(C)cc1C(=O)Nc1nc2cc(C(N)=O)cc(OC)c2n1CCCNC(=O)CCC(=O)O`: the EC50 in experiment [1] and in experiment [2] was over 100 µM throughout.
Consider `CCn1nc(C)cc1C(=O)Nc1nc2cc(C(N)=O)cc(OC)c2n1CCCNC(=O)CCC(=O)OC`, for which the 50% effective concentration (EC50) in experiment [1] and in experiment [2] was over 100 µM in each case.
For the compound `CCCn1c(NC(=O)c2cccnn2)nc2cc(C(N)=O)cc(OC)c21`, the EC50 in experiment [1] and in experiment [2] was over 100 µM each time.
With `COc1cc(C(N)=O)cc2nc(NC(=O)c3nccc4ccccc34)n(CCCNC(=O)OCc3ccccc3)c12`, the EC50 in experiment [1] and in experiment [2] was over 100 µM throughout.
Consider `CCCn1c(NC(=O)c2ccnn2C)nc2cc(C(N)=O)cc(OC)c21`, for which the EC50 in experiment [1] and in experiment [2] was over 100 µM throughout.
`CCn1nc(C)cc1C(=O)Nc1nc2cc(C(N)=O)cc(OC)c2n1CCCNC(=O)c1ccccc1`: the EC50 in experiment [1] and in experiment [2] was over 100 µM each time.
Take `COc1cc(C(N)=O)cc2nc(NC(=O)c3cc4ccccc4n3C)n(CCCNC(=O)OCc3ccccc3)c12`: the EC50 in experiment [1] and in experiment [2] was over 100 µM in each case.

Source of the values: BindingDB's records for doi:10.1021/acs.jmedchem.9b01567 (Peking Union Medical College, 2020).
